IC50 data for 21 compounds are collected here from patent US10077238B2, “Small molecule LFA-1 inhibitors” (ALLOCYTE PHARMACEUTICALS AG, priority 2014, dated 2018).

Structures are written as SMILES. Values joined by “and” are separate entries in the source; they are usually repeats but may differ in a detail not shown here. Equal entries are not always repeated.

In this test the target is T1, LFA-1 (Homo sapiens, UniProt P20701).
T1 construct: endogenous in cells; host or cells: Jurkat cells
T1 sequence (P20701 26-1170): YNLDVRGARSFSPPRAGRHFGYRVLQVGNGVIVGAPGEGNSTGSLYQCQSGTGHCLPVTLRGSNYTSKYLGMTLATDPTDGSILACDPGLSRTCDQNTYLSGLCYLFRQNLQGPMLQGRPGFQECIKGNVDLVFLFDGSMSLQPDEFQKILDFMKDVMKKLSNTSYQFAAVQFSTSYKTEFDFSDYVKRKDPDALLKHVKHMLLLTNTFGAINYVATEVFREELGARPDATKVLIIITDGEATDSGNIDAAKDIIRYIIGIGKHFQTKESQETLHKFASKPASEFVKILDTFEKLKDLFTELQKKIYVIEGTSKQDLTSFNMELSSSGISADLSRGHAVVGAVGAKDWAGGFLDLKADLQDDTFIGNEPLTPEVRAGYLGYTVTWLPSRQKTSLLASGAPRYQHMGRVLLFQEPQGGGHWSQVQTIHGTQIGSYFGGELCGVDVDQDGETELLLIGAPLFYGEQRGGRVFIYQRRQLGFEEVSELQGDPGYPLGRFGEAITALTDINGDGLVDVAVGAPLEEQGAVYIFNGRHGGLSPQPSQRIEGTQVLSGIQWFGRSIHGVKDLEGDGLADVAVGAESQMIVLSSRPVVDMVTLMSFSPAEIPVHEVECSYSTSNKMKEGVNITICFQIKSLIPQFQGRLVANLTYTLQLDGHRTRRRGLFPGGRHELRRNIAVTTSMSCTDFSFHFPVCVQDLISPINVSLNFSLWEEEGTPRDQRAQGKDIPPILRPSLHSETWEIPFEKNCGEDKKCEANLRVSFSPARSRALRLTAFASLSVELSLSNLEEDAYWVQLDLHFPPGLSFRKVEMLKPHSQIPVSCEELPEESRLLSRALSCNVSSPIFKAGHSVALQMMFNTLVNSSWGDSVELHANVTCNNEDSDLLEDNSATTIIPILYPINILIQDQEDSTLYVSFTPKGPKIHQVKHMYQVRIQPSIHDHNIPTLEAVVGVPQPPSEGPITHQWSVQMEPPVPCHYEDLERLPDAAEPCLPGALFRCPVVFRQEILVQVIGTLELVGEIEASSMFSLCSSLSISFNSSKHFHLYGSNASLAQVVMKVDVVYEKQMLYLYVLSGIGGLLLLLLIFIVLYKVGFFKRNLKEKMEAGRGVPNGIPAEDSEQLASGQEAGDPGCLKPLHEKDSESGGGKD
T1 sequence (P05107 23-769 partner): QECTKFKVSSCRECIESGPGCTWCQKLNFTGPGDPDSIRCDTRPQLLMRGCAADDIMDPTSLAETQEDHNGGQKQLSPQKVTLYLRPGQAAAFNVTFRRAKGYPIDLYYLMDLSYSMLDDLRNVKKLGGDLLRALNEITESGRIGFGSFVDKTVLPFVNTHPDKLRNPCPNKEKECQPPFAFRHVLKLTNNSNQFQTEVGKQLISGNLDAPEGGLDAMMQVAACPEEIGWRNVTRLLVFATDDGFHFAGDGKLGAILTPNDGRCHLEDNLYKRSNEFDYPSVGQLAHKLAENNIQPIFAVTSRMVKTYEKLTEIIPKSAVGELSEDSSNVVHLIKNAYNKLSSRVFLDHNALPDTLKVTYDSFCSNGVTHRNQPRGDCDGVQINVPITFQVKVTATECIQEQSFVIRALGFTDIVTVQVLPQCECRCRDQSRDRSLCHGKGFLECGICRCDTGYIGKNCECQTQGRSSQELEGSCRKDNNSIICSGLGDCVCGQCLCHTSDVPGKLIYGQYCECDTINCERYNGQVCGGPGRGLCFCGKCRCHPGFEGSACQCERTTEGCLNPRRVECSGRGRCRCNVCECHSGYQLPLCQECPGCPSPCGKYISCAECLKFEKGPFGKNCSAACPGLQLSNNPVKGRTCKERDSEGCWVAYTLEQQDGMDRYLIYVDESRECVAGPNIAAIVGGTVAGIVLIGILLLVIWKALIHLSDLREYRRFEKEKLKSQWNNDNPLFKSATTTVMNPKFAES
The test is described as follows: V well cell adhesion assay, LFA-1-mediated Jurkat cell binding to ICAM-1 (LFA-1 adhesion). The class given is cell-based. The note with it: Jurkat cells on ICAM-1/Fc; mean ±SD of ≥3 independent experiments in triplicates or single experiments in triplicates. The method, then:
Cell-Based Assay to Determine the Effect of the Compounds on LFA-1-Mediated Cell Adhesion (LFA-1 Adhesion)
Purpose of the Assay: The V well cell adhesion assay measures the ability of the compounds to interfere with LFA-1-mediated binding to ICAM-1 at cellular level. The assay has been successfully used in the past to identify and characterize small molecules LFA-1 inhibitors.
Experimental Protocol: The adhesion assay was performed in Vbottom 96-well plates as described previously [Weitz-Schmidt 2012]. Briefly, the plates were coated with anti-human IgG mAb diluted in coating buffer (20 mM Tris containing 150 mM NaCl, pH 8) (1 μg/mL) and incubated overnight at 4° C. The plates were flicked out and blocked with blocking buffer (50 mM Tris base, 150 mM NaCl, 1.5% BSA (w/v), pH 7.2) at 37° C. for 90 min. Then human recombinant ICAM-1/Fc (R&D Systems) diluted in coating buffer (0.3 μg/mL) was added to each well. The plates were incubated at 37° C. for 90 min and washed with binding buffer (50 mM Tris base, 150 mM NaCl, 1.5% BSA (w/v), 2 mM MgCl2, 2 mM MnCl2, 5 mM D-glucose monohydrate, pH 7.2-7.4) to remove unbound ligand.
Jurkat cells were cultured under standard conditions as recommended by the American Type Culture collection (ATCC). The cells were fluorescently labelled with BCECF-AM in PBS (1 μg/mL) at 37° C. for 20 min in the dark, centrifuged and washed with PBS. The test compounds were dissolved in DMSO at 10 mM and serially pre-diluted in DMSO (100%) to avoid precipitation, before performing final dilution steps in binding buffer.
The labelled Jurkat cells were re-suspended in binding buffer and test compounds or solvent control were added. The DMSO concentration was kept constant in all samples (1% DMSO as final assay concentration). After 40 min at 37° C. (LFA-1 activation and compound pre-incubation step) the cell suspension (3×10^5 cells/mL in binding buffer) was pipetted up and down and transferred to the ligand-coated microtiter V well plates (30 000 cells/well). The plates were centrifuged for 4 min at room temperature (rt) at 1000 rpm (Centrifuge Eppendorf 5810 R), setting the brake off Non-adherent cells that accumulated in the center of the Vbottom were quantified using a fluorescence reader with the filter sets allowing excitation at 485 nm and quantification of emission at 535 nm. The determination of the half maximal inhibitory concentration (IC50) of the compounds was calculated using the software GraphPad Prism 6.
On to `C[C@]12C(=O)N(c3cc(Cl)cc(Cl)c3)C(=O)[C@H]1C2(c1ccc(OC(F)(F)F)cc1)c1ccc(OC(F)(F)F)cc1` (racemic) [4q (racemate), rac-(1S,5S)-3-(3,5-Dichlorophenyl)-1-methyl-6,6-bis[4-(trifluoromethoxy)phenyl]-3-azabicyclo[3.1.0]hexane-2,4-dione], for which the IC50 (usually the midpoint of a concentration-inhibition curve) amounted to 101 nM.

`C[C@]12C(=O)N(c3cc(Cl)cc(Cl)c3)C(=O)[C@H]1[C@@]2(C(=O)N1CCOCC1)c1ccc(Br)cc1` (racemic) [4′k (racemate), rac-(1S,5R,6R)-6-(4-Bromophenyl)-3-(3,5-dichlorophenyl)-1-methyl-6-[(morpholin-4-yl)carbonyl]-3-azabicyclo[3.1.0]hexane-2,4-dione] gave a half-maximal inhibitory concentration (IC50) of 3470 nM.

Regarding `C[C@]12C(=O)N(c3cc(Cl)cc(Cl)c3)C(=O)[C@H]1[C@@]2(C(=O)N1CCOCC1)c1ccc(C(F)(F)F)cc1` (racemic) [4′l (racemate), rac-(1S,5R,6R)-3-(3,5-Dichlorophenyl)-1-methyl-6-[(morpholin-4-yl)carbonyl]-6-[4-(trifluoromethyl)phenyl]-3-azabicyclo[3.1.0]hexane-2,4-dione], the IC50 was more than 3000 nM.

As to `C[C@]12C(=O)N(c3cc(Cl)cc(Cl)c3)C(=O)[C@H]1[C@@]2(C(=O)N1CCOCC1)c1ccc(OC(F)(F)F)cc1` (racemic) [4′m (racemate), rac-(1S,5R,6R)-3-(3,5-Dichlorophenyl)-1-methyl-6-[(morpholin-4-yl)carbonyl]-6-[4-(trifluoromethoxy)phenyl]-3-azabicyclo[3.1.0]hexane-2,4-dione], the half-inhibitory concentration (IC50) worked out at 405 nM.

Compound `C[C@]12C(=O)N(c3cc(Cl)cc(Cl)c3)C(=O)[C@H]1[C@@]2(C(=O)N1CCOCC1)c1ccc(C#N)cc1` (racemic) [4′n (racemate), rac-4-[(1S,5R,6R)-3-(3,5-Dichlorophenyl)-1-methyl-6-[(morpholin-4-yl)carbonyl]-2,4-dioxo-3-azabicyclo[3.1.0]hexan-6-yl]benzonitrile] displayed an IC50 of 636 nM.

As for `CC12C(=O)N(c3cc(Cl)cc(Cl)c3)C(=O)C1C2(c1ccccc1)c1ccncc1` (single isomer, unassigned) [4 o or 4′o diastereomer I (racemate), rac-(1 S, 5S, 6S)- and rac-(1 S, 5S, 6R)-3-(3,5-Dichlorophenyl)-1-methyl-6-phenyl-6-(pyridin-4-yl)-3-azabicyclo[3.1.0]hexane-2,4-dione], the half-maximal inhibitory concentration (IC50) was more than 3000 nM.

Take `CC12C(=O)N(c3cc(Cl)cc(Cl)c3)C(=O)C1C2(c1ccccc1)c1ccncc1` (single isomer, unassigned) [4 o or 4′o diastereomer II (racemate), rac-(1 S, 5S, 6S)- and rac-(1 S, 5S, 6R)-3-(3,5-Dichlorophenyl)-1-methyl-6-phenyl-6-(pyridin-4-yl)-3-azabicyclo[3.1.0]hexane-2,4-dione]: the 50% inhibitory concentration (IC50) was 458 nM.

As to `CC12C(=O)N(c3cc(Cl)cc(Cl)c3)C(=O)C1C2(c1ccccc1)c1ccccc1` (single isomer, unassigned) [4b enantiomer B], the half-inhibitory concentration (IC50) is more than 10000 nM.

As for `CC12C(=O)N(c3cc(Cl)cc(Cl)c3)C(=O)C1C2(c1ccc(C#N)cc1)c1ccc(OC(F)(F)F)cc1` (single isomer, unassigned) [4i/4′i diastereomer I (racemate), rac-4-[(1 S, 5S, 6S)- and rac-4-(1 S, 5S, 6R)-3-(3,5-Dichlorophenyl)-1-methyl-2,4-dioxo-6-[4-(trifluoro-methoxy)-phenyl]-3-azabicyclo[3.1.0]hexan-6-yl]benzonitrile], the IC50 was 562 nM and 530 nM.

On to `N#Cc1ccc(C2(c3ccc(OC(F)(F)F)cc3)C3C(=O)N(c4cc(Cl)cc(Cl)c4)C(=O)C32)cc1` (single isomer, unassigned) [4r or 4′r diastereomer II], for which the IC50 worked out at 132 nM.

Take `N#Cc1ccc(C2(c3ccc(OC(F)(F)F)cc3)C3C(=O)N(c4cc(Cl)cc(Cl)c4)C(=O)C32)cc1` (single isomer, unassigned) [4r or 4′r diastereomer I]: the IC50 was determined as 963 nM.

On to `COc1ccc(C2(c3ccc(Cl)cc3)C3C(=O)N(c4cc(Cl)cc(Cl)c4)C(=O)C32C)cc1` (single isomer, unassigned) [4s or 4′s diastereomer I (racemate), rac-(1 S, 5S, 6R)- and rac-(1 S, 5S, 6S)-6-(4-Chlorophenyl)-3-(3,5-dichlorophenyl)-6-(4-methoxyphenyl)-1-methyl-3-azabicyclo[3.1.0]hexane-2,4-dione], for which the IC50 is 1830 nM.

`COc1ccc(C2(c3ccc(Cl)cc3)C3C(=O)N(c4cc(Cl)cc(Cl)c4)C(=O)C32C)cc1` (single isomer, unassigned) [4s or 4′s diastereomer II (racemate), rac-(1 S, 5S, 6R)- and rac-(1 S, 5S, 6S)-6-(4-Chlorophenyl)-3-(3,5-dichlorophenyl)-6-(4-methoxyphenyl)-1-methyl-3-azabicyclo[3.1.0]hexane-2,4-dione] came in with a concentration for half-maximal inhibition (IC50) of 153 nM.

As to `CC12C(=O)N(c3cc(Cl)cc(Cl)c3)C(=O)C1C2(c1ccccc1)c1ccco1` (single isomer, unassigned) [4t or 4′t Diastereomer I (racemate), rac-(1 S, 5S, 6R)- and rac-(1 S, 5S, 6S)-3-(3,5-Dichlorophenyl)-6-(furan-2-yl)-1-methyl-6-phenyl-3-azabicyclo[3.1.0]hexane-2,4-dione], the IC50 worked out at 870 nM.

Consider `N#Cc1ccc(C2(c3ccncc3)C3C(=O)N(c4cc(Cl)cc(Cl)c4)C(=O)C32)cc1` (single isomer, unassigned) [4y or 4′y diastereomer I, rel-4-[(1 S, 5R, 6s)- and rel-4-[(1 S, 5R, 6r)-3-(3,5-Dichlorophenyl)-2,4-dioxo-6-(pyridin-4-yl)-3-azabicyclo[3.1.0]hexan-6-yl]benzonitrile], for which the 50% inhibitory concentration (IC50) is more than 1000 nM.

Regarding `N#Cc1ccc(C2(c3ccncc3)C3C(=O)N(c4cc(Cl)cc(Cl)c4)C(=O)C32)cc1` (single isomer, unassigned) [4y or 4′y diastereomer II, rel-4-[(1 S, 5R, 6s)- and rel-4-[(1 S, 5R, 6r)-3-(3,5-Dichlorophenyl)-2,4-dioxo-6-(pyridin-4-yl)-3-azabicyclo[3.1.0]hexan-6-yl]benzonitrile], the half-inhibitory concentration (IC50) was not below 1000 nM.

Compound `CC12C(=O)N(c3cc(Cl)cc(Cl)c3)C(=O)C1C2(c1ccncc1)c1ccc(C#N)cc1` (single isomer, unassigned) [4z or 4′z diastereomer I (racemate)] gave an IC50 of more than 1000 nM.

In turn, `CC12C(=O)N(c3cc(Cl)cc(Cl)c3)C(=O)C1C2(c1ccncc1)c1ccc(C#N)cc1` (single isomer, unassigned) [4z or 4′z diastereomer II (racemate)] registered an IC50 of 71 nM.

On to `O=C1[C@@H]2[C@H](C(=O)N1c1cc(Cl)cc(Cl)c1)[C@@H]2c1ccccc1` [4′c, rel-(1R,5S,6r)-3-(3,5-Dichlorophenyl)-6-phenyl-3-azabicyclo[3.1.0]hexane-2,4-dione], for which the IC50 was determined as 1590 nM.

With `O=C1[C@@H]2[C@H](C(=O)N1c1cc(Cl)cc(Cl)c1)[C@@H]2c1ccc(Br)cc1` [4′e, rel-(1R,5S,6r)-6-(4-Bromophenyl)-3-(3,5-dichloro-phenyl)-3-azabicyclo[3.1.0]hexane-2,4-dione], the IC50 worked out at 3330 nM.

In the case of `O=C1[C@@H]2[C@H](C(=O)N1c1cc(Cl)cc(Cl)c1)C2(c1ccccc1)c1ccccc1` [Compound 4a, 3-(3,5-Dichlorophenyl)-6,6-diphenyl-3-azabicyclo[3.1.0]hexane-2,4-dione], the 50% inhibitory concentration (IC50) stood at 8480 nM.
